In patent US9695155B2, “Herbicidal substituted pyrimidinyloxy benzene compounds” (E. I. DU PONT DE NEMOURS AND COMPANY, priority 2013, dated 2017):

Key:
field bindweed = assay: Test E postemergence; type: in vivo, Convolvulus arvensis; conditions: Convolvulus arvensis, post-emergence, read-out: Plant response rating, Field Bindweed
Summary of the method: (§1)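 Compound in a non-phytotoxic solvent mixture with surfactant was applied preemergence to seeds in silt loam soil, or postemergence to plants 2 to 18 cm tall grown in peat-based potting medium. Plants were kept in a greenhouse for 14 to 21 days, then rated visually against untreated controls on a 0 (no effect) to 100 (complete control) scale.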

Brazilian crabgrass = assay: Test E postemergence; type: in vivo, Digitaria horizontalis; conditions: Digitaria horizontalis, post-emergence, read-out: Plant response rating, Crabgrass, Brazil
Summary of the method: as §1

spring wheat [1] = assay: Test D preemergence; type: in vivo, Triticum aestivum; conditions: Triticum aestivum, pre-emergence
Summary of the method: (§2)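 Solvent/surfactant formulations are sprayed pre (silt loam) or post (1–4 leaf plants, 2–18 cm). Plants stay 7–21 days in controlled conditions before a visual 0–100 score is given.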

winter wheat [2] = assay: Test D preemergence; type: in vivo, Triticum aestivum; conditions: Triticum aestivum, pre-emergence
Summary of the method: as §2

corn = assay: Test E postemergence; type: in vivo, Zea mays; conditions: Zea mays, post-emergence
Summary of the method: as §1

hairy beggarticks = assay: Test E postemergence; type: in vivo, Bidens pilosa; conditions: Bidens pilosa, post-emergence, read-out: Plant response rating, Beggarticks
Summary of the method: as §1

waterhemp = assay: Test E postemergence; type: in vivo, Amaranthus rudis; conditions: Amaranthus tuberculatus, post-emergence, read-out: Plant response rating, Waterhemp
Summary of the method: as §1

spring wheat [3] = assay: Test D postemergence; type: in vivo, Triticum aestivum; conditions: Triticum aestivum, post-emergence, scale 0 to 100 (0 no effect, 100 complete control), read-out: Plant response rating, Wheat, Spring
Summary of the method: as §2

winter wheat [4] = assay: Test D postemergence; type: in vivo, Triticum aestivum; conditions: Triticum aestivum, post-emergence, scale 0 to 100 (0 no effect, 100 complete control), read-out: Plant response rating, Wheat, Winter
Summary of the method: as §2

chickweed = assay: Test D postemergence; type: in vivo, Stellaria media; conditions: Stellaria media, post-emergence, scale 0 to 100 (0 no effect, 100 complete control), read-out: Plant response rating, Chickweed
Summary of the method: as §2

kochia = assay: Test D preemergence; type: in vivo, Kochia scoparia; conditions: Bassia scoparia, pre-emergence, scale 0-100, read-out: Plant response rating, Kochia
Summary of the method: as §2

Italian ryegrass = assay: Test D preemergence; type: in vivo, Lolium multiflorum; conditions: Lolium multiflorum, pre-emergence
Summary of the method: as §2

pigweed = assay: Test D postemergence; type: in vivo, Amaranthus retroflexus; conditions: Amaranthus retroflexus, post-emergence, scale 0 to 100 (0 no effect, 100 complete control), read-out: Plant response rating, Pigweed
Summary of the method: as §2

[5] = Postemergence, 31 g ai/ha, scale 0 to 100
[6] = Postemergence, 62 g ai/ha, scale 0 to 100
[7] = Postemergence, 125 g ai/ha, scale 0 to 100
[8] = Postemergence, 250 g ai/ha, scale 0 to 100
[9] = postemergence, 16 g ai/ha, scale 0 to 100, 0 no effect, 100 complete control

N#Cc1cccc(Oc2ncc(Cl)cn2)c1-n1cc(C(F)(F)F)cn1 [Compound 58, 3-[(5-chloro-2-pyrimidinyl)oxy]-2-[4-(trifluoromethyl)-1H-pyrazol-1-yl]benzonitrile]
95%: pest or weed control at 250 g/ha (hairy beggarticks; [8]) | pest or weed control at 62 g/ha (waterhemp; [6]) | pest or weed control at 31 g/ha (kochia; 31 g ai/ha) | pest or weed control at 62 g/ha (kochia; 62 g ai/ha) | pest or weed control at 125 g/ha (kochia; 125 g ai/ha) | pest or weed control at 250 g/ha (kochia; 250 g ai/ha)
20%: pest or weed control at 31 g/ha (Brazilian crabgrass; [5]) | plant injury at 62 g/ha (winter wheat [2]; 62 g ai/ha, scale 0-100, read-out: Plant response rating, Wheat, Winter) | plant injury at 125 g/ha (spring wheat [3]; 125 g ai/ha) | plant injury at 62 g/ha (winter wheat [4]; 62 g ai/ha)
50%: pest or weed control at 16 g/ha (field bindweed; [9]) | plant injury at 125 g/ha (winter wheat [2]; 125 g ai/ha, scale 0-100, read-out: Plant response rating, Wheat, Winter)
55%: pest or weed control at 125 g/ha (Brazilian crabgrass; [7])
65%: pest or weed control at 31 g/ha (hairy beggarticks; [5])
60%: pest or weed control at 31 g/ha (field bindweed; [5]) | pest or weed control at 16 g/ha (hairy beggarticks; [9])
10%: pest or weed control at 16 g/ha (Brazilian crabgrass; [9]) | corn plant response (injury) rating, 0-100 at 31 g/ha (corn; [5]) | corn plant response (injury) rating, 0-100 at 62 g/ha (corn; [6]) | corn plant response (injury) rating, 0-100 at 125 g/ha (corn; [7]) | plant injury at 31 g/ha (spring wheat [3]; 31 g ai/ha) | pest or weed control at 31 g/ha (Italian ryegrass; 31 g ai/ha, scale 0 (no effect) to 100 (complete control), read-out: Plant response rating, Ryegrass, Italian)
0%: plant injury at 31 g/ha (spring wheat [1]; 31 g ai/ha, scale 0 (no effect) to 100 (complete control), read-out: Plant response rating, Wheat, Spring) | plant injury at 31 g/ha (winter wheat [2]; 31 g ai/ha, scale 0 (no effect) to 100 (complete control), read-out: Plant response rating, Wheat, Winter)
90%: plant injury at 250 g/ha (winter wheat [2]; 250 g ai/ha, scale 0-100, read-out: Plant response rating, Wheat, Winter) | pest or weed control at 125 g/ha (hairy beggarticks; [7]) | pest or weed control at 62 g/ha (chickweed; 62 g ai/ha) | pest or weed control at 31 g/ha (pigweed; 31 g ai/ha)
70%: pest or weed control at 62 g/ha (field bindweed; [6]) | pest or weed control at 125 g/ha (field bindweed; [7]) | pest or weed control at 31 g/ha (chickweed; 31 g ai/ha)
35%: plant injury at 250 g/ha (spring wheat [3]; 250 g ai/ha) | pest or weed control at 62 g/ha (Italian ryegrass; 62 g ai/ha, scale 0-100, read-out: Plant response rating, Ryegrass, Italian)
25%: plant injury at 125 g/ha (winter wheat [4]; 125 g ai/ha)
100%: plant injury at 250 g/ha (spring wheat [1]; 250 g ai/ha, scale 0-100, read-out: Plant response rating, Wheat, Spring) | pest or weed control at 125 g/ha (waterhemp; [7]) | pest or weed control at 250 g/ha (waterhemp; [8]) | pest or weed control at 125 g/ha (chickweed; 125 g ai/ha) | pest or weed control at 250 g/ha (chickweed; 250 g ai/ha) | pest or weed control at 125 g/ha (Italian ryegrass; 125 g ai/ha, scale 0-100, read-out: Plant response rating, Ryegrass, Italian) | pest or weed control at 250 g/ha (Italian ryegrass; 250 g ai/ha, scale 0-100, read-out: Plant response rating, Ryegrass, Italian) | pest or weed control at 62 g/ha (pigweed; 62 g ai/ha) | pest or weed control at 125 g/ha (pigweed; 125 g ai/ha) | pest or weed control at 250 g/ha (pigweed; 250 g ai/ha)
40%: pest or weed control at 62 g/ha (Brazilian crabgrass; [6]) | plant injury at 250 g/ha (winter wheat [4]; 250 g ai/ha)
85%: pest or weed control at 31 g/ha (waterhemp; [5])
15%: plant injury at 62 g/ha (spring wheat [1]; 62 g ai/ha, scale 0-100, read-out: Plant response rating, Wheat, Spring) | corn plant response (injury) rating, 0-100 at 250 g/ha (corn; [8]) | plant injury at 62 g/ha (spring wheat [3]; 62 g ai/ha) | plant injury at 31 g/ha (winter wheat [4]; 31 g ai/ha)
75%: pest or weed control at 250 g/ha (Brazilian crabgrass; [8]) | plant injury at 125 g/ha (spring wheat [1]; 125 g ai/ha, scale 0-100, read-out: Plant response rating, Wheat, Spring) | pest or weed control at 16 g/ha (waterhemp; [9])
5%: corn plant response (injury) rating, 0-100 at 16 g/ha (corn; [9])
80%: pest or weed control at 250 g/ha (field bindweed; [8]) | pest or weed control at 62 g/ha (hairy beggarticks; [6])
